Peptide text beside a SMILES is read from it.
Columns and labels:
Yac cells = assay: Doubling time of Yac cells after thirty minutes exposure to osmolarity regulating agents; format: cell-based, mouse; details: for Doubling Time: after thirty minutes exposure, PBS is the comparator; for effects on cell doubling time: compared to phosphate buffered saline
Protocol: The effect on cell viability of exposure to a variety of osmolarity regulating agents was determined by measuring the doubling time of Yac cells after the cells were exposed for thirty minutes to a variety of osmolarity regulating agents. Yac cells are a mouse lymphoma tissue culture cell line available from the American Type Culture Collection, Rockville, Maryland, and are described in the European Journal of Immunology 5:112-117 (1975).

[1] = Cyanine dye solubility in osmolarity regulating agents (relative fluorescence intensity, ethanol standard); format: physicochemical
Protocol: (§1) Included within compounds referred to herein as cyanine dyes are compounds of the above structure having one or more substitutions provided such substituted compounds are soluble in cell labelling media for at least as long as needed for labelling and have a sufficiently high membrane partition coefficient to remain associated with labelled cell membranes. […] Solubility in cell labelling media is determined as shown below by dispursing a cyanine dye in the labelling media and, by standard spectrafluorometric techniques, measuring fluorescence intensity over time. Decreasing fluorescence intensity indicates dye precipitation and adherence to vessel walls. Whether the dyes remain associated with cell membranes is determined, for example, using known flow cytometric procedures to monitor fluorescence intensity of red blood cells injected into the donor animal after labelling. Essentially constant fluorescence intensity of the labelled cells after injection establishes stability of the dye in cell membranes.
All measurements of concentration were made after removal of precipitates by centrifugation and dissolving small aliquots of osmolarity regulating agents containing cyanine dyes into ethanol for spectrofluorometric analysis. The dyes used were DiSC14 (5) and DiOC14 (3), and the osmolarity regulating agents were at iso-osmotic concentrations. Reductions in fluorescence intensity from the ethanol solution standard directly correlate with reductions in cyanine dye solubility.

V79 cells = assay: Growth kinetics of stained V79 cells; format: cell-based; details: 10^-5 or 4×10^-5 M dye, versus unstained cells
Protocol: Cells cyanine dye labelled using the presently invented procedure were analyzed to determine the effect of labelling on cell viability. V79 cells which are available from the American Type Culture Collection, Rockville, Maryland, and are described in Prescott, D. M., Ann. New York Acad. Sci., 397:101-109 (1982), were labelled with a solution containing DiOC14 (3) at a concentration of 10^-5 or 4×10^-5 M and the growth kinetics of the stained cells were compared to unstained cells and an equal mixture of stained and unstained cells. […] Thus, labelling had no effect on cell growth.

[2] = Stability of DiSC14 (5) solutions in osmolarity regulating agents; format: physicochemical
Protocol: as §1
Additionally, stability of DiSC14 (5) solutions in sugars such as glucose, fructose, ribose, sorbose, sucrose, and xylose, sugar-alcohols such as glycerol, inositol, xylitol, and adonitol, and amino acids such as glycine and arginine was determined.

[3] = Solubility of DiSC14 (5) in iso-osmotic glucose diluted with water or sodium chloride solution; format: physicochemical
Protocol: Further, the solubility of cyanine dyes in a medium containing classical salts and osmolarity regulators in which the dyes are soluble was evaluated. […] Thus, reproducible cell labelling with cyanine dyes can be performed in media containing no more than small amounts of classical salts, such as sodium chloride, potassium chloride, calcium chloride, sodium acetate, potassium acetate, sodium sulfate, sodium iodide, choline chloride, or choline iodide, and preferably is performed in a medium in which no classical salts are used to regulate osmolarity.

rabbit red cells = assay: In vivo stability of labelled rabbit red cells after reinfusion
Source text: To test in vivo stability of cells cyanine dye labelled according to the presently invented method, rabbit red cells were withdrawn, labelled with DiSC14 (5), and reinfused. Periodically thereafter, blood samples were obtained and analyzed for percent labelled cells and fluorescence intensity of the labelled cells.
In the fifth animal, not more than 20% of the cyanine dye had migrated from the labelled cells after 60 days in the rabbits' circulation.

[4] = in Phosphate Buffered Saline, ethanol = 100
[5] = in iso-osmotic Arginine, ethanol = 100
[6] = in iso-osmotic Choline Chloride, ethanol = 100, ** (DiSC14 (5) value) Artifact due to large crystals that did not pellet
[7] = in iso-osmotic Choline Iodide, ethanol = 100
[8] = in iso-osmotic Fructose, ethanol = 100
[9] = in iso-osmotic Glucose, ethanol = 100
[10] = in iso-osmotic Glycerol, ethanol = 100
[11] = in iso-osmotic Glycine, ethanol = 100
[12] = in iso-osmotic Inositol, ethanol = 100
[13] = in iso-osmotic Lyxose, ethanol = 100
[14] = in iso-osmotic Na2 SO4, ethanol = 100
[15] = in iso-osmotic NaCl, ethanol = 100
[16] = in iso-osmotic NaI, ethanol = 100
[17] = in iso-osmotic Ribose, ethanol = 100
[18] = in iso-osmotic Sorbose, ethanol = 100
[19] = in iso-osmotic Sucrose, ethanol = 100
[20] = in iso-osmotic Xylitol, ethanol = 100
[21] = in iso-osmotic Xylose, ethanol = 100
[22] = rabbit, reinfused labelled red cells

NCC(=O)NCC(=O)O [Glycylglycine] (H-Gly-Gly-OH)
Doubling Time (Yac cells): 66.9 h

O=S(=O)(O)CC(O)CN(CCO)CCO (centres unmarked) [DIPSO, 3-[N--N--bis(2-hydroxyethyl)amino]-2-hydroxypropane-sulfonic acid]
Doubling Time (Yac cells): 36.7 h
effects on cell doubling time (Yac cells): negligible effects on cell doubling time

O=C(O)CN(CCO)CCO [BICINE, N,N--bis(2-hydroxyethyl)glycine]
Doubling Time (Yac cells): 57.7 h

O=S(=O)(O)CC(O)CN1CCN(CCO)CC1 (centres unmarked) [HEPPSO, N--2-hydroxyethylpiperazine-N'--2-hydroxypropane-sulfonic acid]
Doubling Time (Yac cells): 23.4 h
effects on cell doubling time (Yac cells): negligible effects on cell doubling time

NC(=O)CNCCS(=O)(=O)O [ACES, 2-[(2-Amino-2-oxoethyl)amino]ethane sulfonic acid]
Doubling Time (Yac cells): 1038.4 h

O=S(=O)(O)CCCN1CCN(CCO)CC1 [EPPS, N--(2-Hydroxyethyl)piperazine-N'--3-propanesulfonic acid]
Doubling Time (Yac cells): 32.2 h
effects on cell doubling time (Yac cells): negligible effects on cell doubling time

NCCCS(=O)(=O)O [3-Amino-1-propanesulfonic acid]
Doubling Time (Yac cells): 99.6 h

O=C[C@H](O)[C@@H](O)[C@H](O)[C@H](O)CO [Glucose]
Doubling Time (Yac cells): 34.5 h
effects on cell doubling time (Yac cells): negligible effects on cell doubling time

O=S(=O)(O)CCCNC(CO)(CO)CO [TAPS, Tris(hydroxymethyl)-methylaminopropane sulfonic acid]
Doubling Time (Yac cells): 32.7 h
effects on cell doubling time (Yac cells): negligible effects on cell doubling time

CCCCCCCCCCCCCCN1C(=CC=Cc2oc3ccccc3[n+]2CCCCCCCCCCCCCC)Oc2ccccc21 [DiOC14 (3)]
Relative Fluorescence Intensity (CONC) ([1]; in Ethanol (standard)): 100
Relative Fluorescence Intensity (CONC) [1, 4]: 6.5
Relative Fluorescence Intensity (CONC) [1, 5]: 17.2
Relative Fluorescence Intensity (CONC) [1, 6]: 6.3
Relative Fluorescence Intensity (CONC) [1, 7]: 2.3
Relative Fluorescence Intensity (CONC) [1, 8]: 100
Relative Fluorescence Intensity (CONC) [1, 9]: 100
Relative Fluorescence Intensity (CONC) [1, 10]: 99.5
Relative Fluorescence Intensity (CONC) [1, 11]: 93
Relative Fluorescence Intensity (CONC) [1, 12]: 92
Relative Fluorescence Intensity (CONC) [1, 13]: 1.8
Relative Fluorescence Intensity (CONC) [1, 14]: 1.6
Relative Fluorescence Intensity (CONC) [1, 15]: 1.7
Relative Fluorescence Intensity (CONC) [1, 16]: 0.14
Relative Fluorescence Intensity (CONC) [1, 17]: 100
Relative Fluorescence Intensity (CONC) [1, 18]: 100
Relative Fluorescence Intensity (CONC) [1, 19]: 100
Relative Fluorescence Intensity (CONC) [1, 20]: 76.4
Relative Fluorescence Intensity (CONC) [1, 21]: 19-52
Cell doubling time of labelled cells (V79 cells): Cell doubling time was unaffected by cyanine dye labelling

O=S(=O)(O)CC(O)CN1CCOCC1 (centres unmarked) [MOPSO, 3-(N--morpholino)-2-hydroxypropane-sulfonic acid]
Doubling Time (Yac cells): 178.4 h

O=S(=O)(O)CC(O)CNC(CO)(CO)CO (centres unmarked) [TAPSO, 3-[N--tris(hydroxymethyl)methylamino]-2-hydroxypropanesulfonic acid]
Doubling Time (Yac cells): 63.6 h

N[C@H]1C(O)O[C@H](CO)[C@@H](O)[C@@H]1O (some centres unmarked) [Glucosamine]
Doubling Time (Yac cells): 288.4 h

O=S(=O)(O)CCNC1CCCCC1 [CHES, 2-(N--cyclohexylamino)ethane sulfonic acid]
Doubling Time (Yac cells): 51.5 h

CCCCCCCCCCCCCCN1C(=CC=CC=Cc2sc3ccccc3[n+]2CCCCCCCCCCCCCC)Sc2ccccc21 [DiSC14 (5)]
time for which dye was stable in solution ([2]; in glucose, fructose, ribose, sorbose, sucrose, xylose, glycerol, inositol, xylitol, adonitol, glycine, arginine): at least twenty
amount of cyanine dye in solution at sixty minutes ([2]; in many of the agents, sixty minutes): had not significantly decreased at sixty minutes
solubility in iso-osmotic glucose solution on dilution with distilled water ([3]; diluted with distilled water): not significantly affected by dilution with distilled water
solubility in iso-osmotic glucose solution on dilution with sodium chloride solution ([3]; dilution with only approximately 20% iso-osmotic sodium chloride solution): reduced significantly
fluorescence intensity of the stained cells (rabbit red cells; 60 days after labelling and reinjection, all but one of five rabbits): remained essentially unchanged 60 days after labelling and reinjection
cyanine dye migrated from the labelled cells (rabbit red cells; fifth rabbit, after 60 days in circulation): not more than 20%
clearance rate of red blood cells (rabbit red cells; rabbit, labelled red cells): did not affect the clearance rate of red blood cells
lifetime of labelled red cells (rabbit red cells; [22]): 52 days
number of circulating labelled red cells over time (rabbit red cells; [22]): decreased linearly as a function of time
Relative Fluorescence Intensity (CONC) ([1]; in Ethanol (standard)): 100
Relative Fluorescence Intensity (CONC) [1, 4]: 2.1
Relative Fluorescence Intensity (CONC) ([1]; in iso-osmotic Adonitol, ethanol = 100): 34
Relative Fluorescence Intensity (CONC) [1, 5]: 17
Relative Fluorescence Intensity (CONC) ([1]; in iso-osmotic CAPS, ethanol = 100): 40
Relative Fluorescence Intensity (CONC) [1, 6]: 11
Relative Fluorescence Intensity (CONC) [1, 7]: 0.16
Relative Fluorescence Intensity (CONC) ([1]; in iso-osmotic DIPSO, ethanol = 100, *** Precipitate in ethanol (data questionable)): 43
Relative Fluorescence Intensity (CONC) ([1]; in iso-osmotic EPPS, ethanol = 100): 18
Relative Fluorescence Intensity (CONC) [1, 8]: 35
Relative Fluorescence Intensity (CONC) [1, 9]: 31
Relative Fluorescence Intensity (CONC) [1, 10]: 39
Relative Fluorescence Intensity (CONC) [1, 11]: 31
Relative Fluorescence Intensity (CONC) ([1]; in iso-osmotic HEPPSO, ethanol = 100): 20
Relative Fluorescence Intensity (CONC) [1, 12]: 42
Relative Fluorescence Intensity (CONC) [1, 13]: 0.12
Relative Fluorescence Intensity (CONC) ([1]; in iso-osmotic Mannitol, ethanol = 100): 29
Relative Fluorescence Intensity (CONC) [1, 14]: 7.4
Relative Fluorescence Intensity (CONC) [1, 15]: 6
Relative Fluorescence Intensity (CONC) [1, 16]: 1.1
Relative Fluorescence Intensity (CONC) [1, 17]: 24
Relative Fluorescence Intensity (CONC) [1, 18]: 40
Relative Fluorescence Intensity (CONC) [1, 19]: 41
Relative Fluorescence Intensity (CONC) ([1]; in iso-osmotic TAPS, ethanol = 100): 18
Relative Fluorescence Intensity (CONC) [1, 20]: 34
Relative Fluorescence Intensity (CONC) [1, 21]: 36

OC[C@H]1O[C@@](CO)(O[C@H]2O[C@H](CO)[C@@H](O)[C@H](O)[C@H]2O)[C@@H](O)[C@@H]1O [Sucrose]
Doubling Time (Yac cells): 41.0 h
effects on cell doubling time (Yac cells): negligible effects on cell doubling time

O=S(=O)(O)CCCNC1CCCCC1 [CAPS, 3-(Cyclohexylamino)-1-propanesulfonic acid]
Doubling Time (Yac cells): 45.8 h
effects on cell doubling time (Yac cells): negligible effects on cell doubling time

— patent publication US4762701A, “In vivo cellular tracking” (SmithKline Beckman Corporation, priority 1986, dated 1988)
